Data taken from US10723813B2, “PDGF-B /PDGF-BB binding variants of heparan sulfates” (Agency for Science, Technology and Research, priority 2015, dated 2020).
“Also recorded” adds a separate entry of the source.

Columns and labels:
Type in all cases: cell-based
[1] = test system: human dermal fibroblasts (HDFs); test: In vitro proliferation of HDFs (Example 15), with or without PDGFR/FGFR1 inhibitors; settings: FIG. 30
Protocol: FIG. 29. Charts showing proliferative effect of PDGF-BB and HS6 on human dermal fibroblasts: (A) PDGF-BB (1, 2.5, 5, 10, 25 ng/ml), (B) HS6 (0.25, 0.5, 1, 2.5, 5, 10, 25 μg HS6), (C) 2.5 ng PDGF-BB+HS6 (0, 0.25, 0.5, 1, 2.5, 5, 10, 25 μg).
FIG. 30. Charts showing effect of PDGFR and FGFR inhibition. (A) Effect of PDGFR inhibitor JNJ-10198409; (B) Effect of FGFR1 inhibitor SU5402.

[2] = test system: human N-TERT/1 keratinocytes; test: Scratch wound assay on keratinocytes; settings: confluent N-TERT/1, IncuCyte; increasing amounts (FIG. 31)
[3] = test system: human dermal fibroblast (HDF); test: HDF proliferation (Guava Viacount, 72 hrs)
Protocol: Proliferation Protocol: • 1. Thaw human dermal fibroblast (HDF, Cascade Biologics) into a T75 in maintenance medium at 5×10^3 cells/cm^2 (α-MEM, 10% FCS, P/S) at 37° C. 5% CO^2 humidified incubator. • 2. At 70-80% confluence, wash cells in PBS twice, add 1 ml of 0.125% trypsin and incubate for 3 mins. Tap the dish and stop the trypsin by adding 5 ml of medium. Centrifuge cells down at 180 g for 7 mins. • 3. Count total number of cells. • 4. Seed cells at 500 μl of 3000 cells/cm^2 cell suspension per well and place the plates into the incubator for 24 hrs. • 5. Change media to α-MEM, 1% FCS, P/S media for 24 hrs. • 6. Treat cells with PDGF-BB and HS fractions. • 7. After 72 hrs, wash cells with PBS and add 100 ul of trypsin, incubate for 3 mins. • 8. Add 100 ul of Guava Viacount dye mastermix into each well of trypsinize cells. • 9. Transfer total volume of 200 ul of cells per well into a 96 well Guava plate. Results:
The proliferation protocol described in Example 9 was used.

[4] = test system: human dermal fibroblast (HDF); test: HDF migration scratch assay (IncuCyte)
Protocol: Migration Protocol: • 1. Seed 10,000 HDF per well in maintenance media, into a 96 well ImageLock plate. • 2. After 24 hrs, change media to 1% α-MEM • 3. Once cells are confluent, scratch the surface using the wound maker and wash once with PBS. • 4. Add 100 μl of treatment media into each well and place plate into IncuCyte and run for 40 hours. • 5. Program is set up to take photo every 2 hours. Results:
The migration protocol from Example 11 was followed using a range of HS6+ doses (20 μg/mL, 40 μg/mL, 60 μg/mL) with 5 ng/ml PDGF-BB.

COc1cc2c(cc1OC)-c1[nH]nc(Nc3cccc(F)c3)c1C2 [JNJ-10198409]
Stimulation of proliferation in the presence of inhibitor [1]: very strongly inhibited

Cc1c[nH]c(/C=C2\C(=O)Nc3ccccc32)c1CCC(=O)O [SU5402]
Stimulation of proliferation in the presence of inhibitor [1]: also inhibited—but not as strongly

PDGF-BB: homodimer of platelet-derived growth factor B; recombinant (R&D)
Closure of the scratch wound, keratinocytes [2]: able to improve the closure
HDF proliferation, dosing ([3]; 72 hrs, increasing concentration of the substance): dose dependently increase HDF proliferation; also recorded: dose dependent increase in proliferation
Optimal concentration for proliferation ([3]; HDF, 72 hrs): 10 ng/mL
Viability of HDF ([3]; higher concentration of PDGF-BB): decreased viability
PDGF-BB concentration up to which rate of wound closure increases [4]: up to 10 ng/mL
Rate of closure at more than 10 ng/mL PDGF-BB [4]: does not speed up the rate of closure
HDF migration, PDGF-BB dosing ([4]; PDGF-BB alone): induces HDF migration
